Test results reported in US20220073554A1, “LINCOSAMIDE ANTIBIOTICS AND USES THEREOF” (President and Fellows of Harvard College, priority 2017, published 2022).
≈ marks a conversion by molar mass, not a printed value.

test system: E. coli ATCC 25922; assay: MIC against E. coli ATCC 25922; assay type: cell-based; conditions: Escherichia coli, ATCC25922

SMILES	MIC [µg/mL]
CSC1O[C@H]([C@H](NC(=O)[C@H]2NC[C@@H]3CN(CC(=O)O)CCO[C@H]32)[C@H](C)Cl)C(O)[C@@H](O)[C@H]1O (stereo partly shown) [FSA-504063]	> 64
CCCN1CCO[C@@H]2[C@H](CN[C@@H]2C(=O)N[C@H]([C@H](C)Cl)[C@H]2OC(SC)[C@H](O)[C@H](O)C2O)C1 (stereo partly shown) [FSA-503003]	> 64
CSC1O[C@H]([C@H](NC(=O)[C@H]2NC[C@@H]3CN(Cc4ccnc(N)c4)CCO[C@H]32)[C@H](C)Cl)C(O)[C@@H](O)[C@H]1O (stereo partly shown) [FSA-504049]	> 64
CSC1O[C@H]([C@H](NC(=O)[C@H]2NC[C@@H]3CN(C)CCO[C@H]32)[C@H](C)Cl)C(O)[C@@H](O)[C@H]1O (stereo partly shown) [FSA-503002]	> 64
CCNC(=O)N1CCO[C@@H]2[C@H](CN[C@@H]2C(=O)N[C@H]([C@H](C)Cl)[C@H]2OC(SC)[C@H](O)[C@H](O)C2O)C1 (stereo partly shown) [FSA-503004]	> 64
CSC1O[C@H]([C@H](NC(=O)[C@H]2NC[C@@H]3CNCCO[C@H]32)[C@H](C)Cl)C(O)[C@@H](O)[C@H]1O (stereo partly shown) [FSA-503001]	> 64
CSC1O[C@H]([C@H](NC(=O)[C@H]2NC[C@@H]3CN(C(=N)N)CCO[C@H]32)[C@H](C)Cl)C(O)[C@@H](O)[C@H]1O (stereo partly shown) [FSA-504057]	> 64

test system: S. aureus MP-549 msr(a) USA 300; assay: MIC against S. aureus MP-549 msr(a) USA 300; assay type: cell-based; conditions: Staphylococcus aureus, USA300, S. aureus MP-549 msr(a) USA 300

SMILES	MIC [µg/mL]
CCCN1CCO[C@@H]2[C@H](CN[C@@H]2C(=O)N[C@H]([C@H](C)Cl)[C@H]2OC(SC)[C@H](O)[C@H](O)C2O)C1 (stereo partly shown) [FSA-503003]	2 (≈ 4.15 µM)
CSC1O[C@H]([C@H](NC(=O)[C@H]2NC[C@@H]3CN(Cc4ccnc(N)c4)CCO[C@H]32)[C@H](C)Cl)C(O)[C@@H](O)[C@H]1O (stereo partly shown) [FSA-504049]	8 (≈ 14.6 µM)
CSC1O[C@H]([C@H](NC(=O)[C@H]2NC[C@@H]3CN(C)CCO[C@H]32)[C@H](C)Cl)C(O)[C@@H](O)[C@H]1O (stereo partly shown) [FSA-503002]	> 64
CCNC(=O)N1CCO[C@@H]2[C@H](CN[C@@H]2C(=O)N[C@H]([C@H](C)Cl)[C@H]2OC(SC)[C@H](O)[C@H](O)C2O)C1 (stereo partly shown) [FSA-503004]	> 64
CSC1O[C@H]([C@H](NC(=O)[C@H]2NC[C@@H]3CNCCO[C@H]32)[C@H](C)Cl)C(O)[C@@H](O)[C@H]1O (stereo partly shown) [FSA-503001]	> 64

test system: K. pneumoniae ATCC 10031; assay: MIC against K. pneumoniae ATCC 10031; assay type: cell-based; conditions: Klebsiella pneumoniae, ATCC10031

SMILES	MIC [µg/mL]
CSC1O[C@H]([C@H](NC(=O)[C@H]2NC[C@@H]3CN(CC(=O)O)CCO[C@H]32)[C@H](C)Cl)C(O)[C@@H](O)[C@H]1O (stereo partly shown) [FSA-504063]	> 64
CCCN1CCO[C@@H]2[C@H](CN[C@@H]2C(=O)N[C@H]([C@H](C)Cl)[C@H]2OC(SC)[C@H](O)[C@H](O)C2O)C1 (stereo partly shown) [FSA-503003]	> 64
CSC1O[C@H]([C@H](NC(=O)[C@H]2NC[C@@H]3CN(Cc4ccnc(N)c4)CCO[C@H]32)[C@H](C)Cl)C(O)[C@@H](O)[C@H]1O (stereo partly shown) [FSA-504049]	> 64
CSC1O[C@H]([C@H](NC(=O)[C@H]2NC[C@@H]3CN(C)CCO[C@H]32)[C@H](C)Cl)C(O)[C@@H](O)[C@H]1O (stereo partly shown) [FSA-503002]	> 64
CCNC(=O)N1CCO[C@@H]2[C@H](CN[C@@H]2C(=O)N[C@H]([C@H](C)Cl)[C@H]2OC(SC)[C@H](O)[C@H](O)C2O)C1 (stereo partly shown) [FSA-503004]	> 64
CSC1O[C@H]([C@H](NC(=O)[C@H]2NC[C@@H]3CNCCO[C@H]32)[C@H](C)Cl)C(O)[C@@H](O)[C@H]1O (stereo partly shown) [FSA-503001]	> 64
CSC1O[C@H]([C@H](NC(=O)[C@H]2NC[C@@H]3CN(C(=N)N)CCO[C@H]32)[C@H](C)Cl)C(O)[C@@H](O)[C@H]1O (stereo partly shown) [FSA-504057]	> 64

test system: S. aureus MP-513 clinical cErm; assay: MIC against S. aureus MP-513 clinical cErm; assay type: cell-based; conditions: Staphylococcus aureus

SMILES	MIC [µg/mL]
CSC1O[C@H]([C@H](NC(=O)[C@H]2NC[C@@H]3CN(CC(=O)O)CCO[C@H]32)[C@H](C)Cl)C(O)[C@@H](O)[C@H]1O (stereo partly shown) [FSA-504063]	> 64
CCCN1CCO[C@@H]2[C@H](CN[C@@H]2C(=O)N[C@H]([C@H](C)Cl)[C@H]2OC(SC)[C@H](O)[C@H](O)C2O)C1 (stereo partly shown) [FSA-503003]	> 64
CSC1O[C@H]([C@H](NC(=O)[C@H]2NC[C@@H]3CN(Cc4ccnc(N)c4)CCO[C@H]32)[C@H](C)Cl)C(O)[C@@H](O)[C@H]1O (stereo partly shown) [FSA-504049]	> 64
CSC1O[C@H]([C@H](NC(=O)[C@H]2NC[C@@H]3CN(C)CCO[C@H]32)[C@H](C)Cl)C(O)[C@@H](O)[C@H]1O (stereo partly shown) [FSA-503002]	> 64
CCNC(=O)N1CCO[C@@H]2[C@H](CN[C@@H]2C(=O)N[C@H]([C@H](C)Cl)[C@H]2OC(SC)[C@H](O)[C@H](O)C2O)C1 (stereo partly shown) [FSA-503004]	> 64
CSC1O[C@H]([C@H](NC(=O)[C@H]2NC[C@@H]3CNCCO[C@H]32)[C@H](C)Cl)C(O)[C@@H](O)[C@H]1O (stereo partly shown) [FSA-503001]	> 64
CSC1O[C@H]([C@H](NC(=O)[C@H]2NC[C@@H]3CN(C(=N)N)CCO[C@H]32)[C@H](C)Cl)C(O)[C@@H](O)[C@H]1O (stereo partly shown) [FSA-504057]	> 64

test system: S. aureus BAA 977 iErmA; assay: MIC against S. aureus BAA 977 iErmA; assay type: cell-based; conditions: Staphylococcus aureus, BAA977

SMILES	MIC [µg/mL]
CCCN1CCO[C@@H]2[C@H](CN[C@@H]2C(=O)N[C@H]([C@H](C)Cl)[C@H]2OC(SC)[C@H](O)[C@H](O)C2O)C1 (stereo partly shown) [FSA-503003]	4 (≈ 8.3 µM)
CSC1O[C@H]([C@H](NC(=O)[C@H]2NC[C@@H]3CN(C)CCO[C@H]32)[C@H](C)Cl)C(O)[C@@H](O)[C@H]1O (stereo partly shown) [FSA-503002]	> 64
CCNC(=O)N1CCO[C@@H]2[C@H](CN[C@@H]2C(=O)N[C@H]([C@H](C)Cl)[C@H]2OC(SC)[C@H](O)[C@H](O)C2O)C1 (stereo partly shown) [FSA-503004]	> 64
CSC1O[C@H]([C@H](NC(=O)[C@H]2NC[C@@H]3CNCCO[C@H]32)[C@H](C)Cl)C(O)[C@@H](O)[C@H]1O (stereo partly shown) [FSA-503001]	> 64

test system: E. coli MP-9 ΔTolC; assay: MIC against E. coli MP-9 ΔTolC; assay type: cell-based; conditions: Escherichia coli

SMILES	MIC [µg/mL]
CSC1O[C@H]([C@H](NC(=O)[C@H]2NC[C@@H]3CN(CC(=O)O)CCO[C@H]32)[C@H](C)Cl)C(O)[C@@H](O)[C@H]1O (stereo partly shown) [FSA-504063]	> 64
CCCN1CCO[C@@H]2[C@H](CN[C@@H]2C(=O)N[C@H]([C@H](C)Cl)[C@H]2OC(SC)[C@H](O)[C@H](O)C2O)C1 (stereo partly shown) [FSA-503003]	> 64
CSC1O[C@H]([C@H](NC(=O)[C@H]2NC[C@@H]3CN(Cc4ccnc(N)c4)CCO[C@H]32)[C@H](C)Cl)C(O)[C@@H](O)[C@H]1O (stereo partly shown) [FSA-504049]	> 64
CSC1O[C@H]([C@H](NC(=O)[C@H]2NC[C@@H]3CN(C)CCO[C@H]32)[C@H](C)Cl)C(O)[C@@H](O)[C@H]1O (stereo partly shown) [FSA-503002]	> 64
CCNC(=O)N1CCO[C@@H]2[C@H](CN[C@@H]2C(=O)N[C@H]([C@H](C)Cl)[C@H]2OC(SC)[C@H](O)[C@H](O)C2O)C1 (stereo partly shown) [FSA-503004]	> 64
CSC1O[C@H]([C@H](NC(=O)[C@H]2NC[C@@H]3CNCCO[C@H]32)[C@H](C)Cl)C(O)[C@@H](O)[C@H]1O (stereo partly shown) [FSA-503001]	> 64
CSC1O[C@H]([C@H](NC(=O)[C@H]2NC[C@@H]3CN(C(=N)N)CCO[C@H]32)[C@H](C)Cl)C(O)[C@@H](O)[C@H]1O (stereo partly shown) [FSA-504057]	> 64

test system: S. aureus ATCC 29213; assay: MIC against S. aureus ATCC 29213; assay type: cell-based; conditions: Staphylococcus aureus, ATCC29213

SMILES	MIC [µg/mL]
CSC1O[C@H]([C@H](NC(=O)[C@H]2NC[C@@H]3CN(CC(=O)O)CCO[C@H]32)[C@H](C)Cl)C(O)[C@@H](O)[C@H]1O (stereo partly shown) [FSA-504063]	> 64
CCNC(=O)N1CCO[C@@H]2[C@H](CN[C@@H]2C(=O)N[C@H]([C@H](C)Cl)[C@H]2OC(SC)[C@H](O)[C@H](O)C2O)C1 (stereo partly shown) [FSA-503004]	> 64
CSC1O[C@H]([C@H](NC(=O)[C@H]2NC[C@@H]3CN(C(=N)N)CCO[C@H]32)[C@H](C)Cl)C(O)[C@@H](O)[C@H]1O (stereo partly shown) [FSA-504057]	> 64

same assay, conditions: Staphylococcus aureus, ATCC29213, S. aureus ATCC 29213; read-out: MIC

SMILES	MIC [µg/mL]
CCCN1CCO[C@@H]2[C@H](CN[C@@H]2C(=O)N[C@H]([C@H](C)Cl)[C@H]2OC(SC)[C@H](O)[C@H](O)C2O)C1 (stereo partly shown) [FSA-503003]	4 (≈ 8.3 µM)
CSC1O[C@H]([C@H](NC(=O)[C@H]2NC[C@@H]3CN(Cc4ccnc(N)c4)CCO[C@H]32)[C@H](C)Cl)C(O)[C@@H](O)[C@H]1O (stereo partly shown) [FSA-504049]	14 (≈ 25.6 µM)

test system: P. aeruginosa ATCC 27853; assay: MIC against P. aeruginosa ATCC 27853; assay type: cell-based; conditions: Pseudomonas aeruginosa, ATCC27853

SMILES	MIC [µg/mL]
CSC1O[C@H]([C@H](NC(=O)[C@H]2NC[C@@H]3CN(CC(=O)O)CCO[C@H]32)[C@H](C)Cl)C(O)[C@@H](O)[C@H]1O (stereo partly shown) [FSA-504063]	> 64
CCCN1CCO[C@@H]2[C@H](CN[C@@H]2C(=O)N[C@H]([C@H](C)Cl)[C@H]2OC(SC)[C@H](O)[C@H](O)C2O)C1 (stereo partly shown) [FSA-503003]	> 64
CSC1O[C@H]([C@H](NC(=O)[C@H]2NC[C@@H]3CN(Cc4ccnc(N)c4)CCO[C@H]32)[C@H](C)Cl)C(O)[C@@H](O)[C@H]1O (stereo partly shown) [FSA-504049]	> 64
CSC1O[C@H]([C@H](NC(=O)[C@H]2NC[C@@H]3CN(C)CCO[C@H]32)[C@H](C)Cl)C(O)[C@@H](O)[C@H]1O (stereo partly shown) [FSA-503002]	> 64
CCNC(=O)N1CCO[C@@H]2[C@H](CN[C@@H]2C(=O)N[C@H]([C@H](C)Cl)[C@H]2OC(SC)[C@H](O)[C@H](O)C2O)C1 (stereo partly shown) [FSA-503004]	> 64
CSC1O[C@H]([C@H](NC(=O)[C@H]2NC[C@@H]3CNCCO[C@H]32)[C@H](C)Cl)C(O)[C@@H](O)[C@H]1O (stereo partly shown) [FSA-503001]	> 64
CSC1O[C@H]([C@H](NC(=O)[C@H]2NC[C@@H]3CN(C(=N)N)CCO[C@H]32)[C@H](C)Cl)C(O)[C@@H](O)[C@H]1O (stereo partly shown) [FSA-504057]	> 64
